Consider one compound from patent US8367319B2, “Methods and compositions for the identification of antibiotics that are not susceptible to antibiotic resistance” (Wayne State University, priority 2002, dated 2013).

Assay [1] has as its system E. coli DH5. The assay is described as follows: Minimum inhibitory concentration (MIC) of chloramphenicol for cells expressing plasmid-derived ribosomes (CAT reporter). It is filed as cell-based. The note with it: for MIC: Escherichia coli.
In assay [2] the test system is E. coli DH5. The assay is described as above. Format: cell-based. Particulars: for MIC: Escherichia coli. Here is the method: Bacterial strains and media. All plasmids were maintained and expressed in E. coli DH5 (supE44, hsdR17, recA1, endA1, gyrA96, thi-1 and relA1) (36). To induce synthesis of plasmid-derived rRNA from the lacUV5 promoter, IPTG was added to a final concentration of 1 mM. Chloramphenicol acetyltransferase activity was determined essentially as described by Nielsen et al. (1989) Anal. Biochem. 179: 19-23. Cultures for CAT assays were grown in LB-Ap100. MIC were determined by standard methods in microtiter plates as described in Lee, K., et al. (1997) J. Mol. Biol. 269: 732-743.
Minimum inhibitory concentration determination. MICs were determined by standard methods in microtiter plates or on solid medium. Overnight cultures grown in LB-Ap100 were diluted and induced in the same medium containing 1 mM IPTG for three hours. Approximately 10^4 induced cells were then added to wells (or spotted onto solid medium) containing LB-Ap100+ IPTG (1 mM) and chloramphenicol at increasing concentrations.
The source holds these as a separate data set.

The structures appear in SMILES notation. ≈ marks a conversion by molar mass, not a printed value. Where two headings read alike, the source gives them in different places.

With `O=C(N[C@H](CO)[C@H](O)c1ccc([N+](=O)[O-])cc1)C(Cl)Cl` [chloramphenicol], the MIC in assay [1] (DH5, pRNA122 (specialized ribosomes), uninduced, read-out: background chloramphenicol MIC) is 40 to 50 µg/mL (≈ 124 to 155 µM); in assay [1] (DH5, uninduced cells containing pRNA100 (FIG. 13), read-out: MIC of chloramphenicol), 100 µg/mL; in assay [2] (DH5, 451 of 536 selected MBS-RBS isolates (84.1%), in the presence of inducer, read-out: MIC of chloramphenicol), 400 to 600 µg/mL; in assay [2] (DH5, 24 h, cells expressing wild-type rRNA from pRNA122 (unmutated control), induced with 1 mM IPTG, 24 hours, read-out: MIC of chloramphenicol) it was 600 µg/mL; in assay [2] (DH5, 24 h, nine slow growing MBS-RBS isolates (1.7%), in the presence of inducer, scored after 24 hours, read-out: MIC of chloramphenicol), under 350 µg/mL; in assay [2] (DH5, pRNA122 (specialized ribosomes), induced cells, read-out: MIC of chloramphenicol) it was 550 to 600 µg/mL. In addition, the MIC in assay [2] (DH5, read-out: MIC of chloramphenicol, mean over mutants, cells expressing 78 functional 790-loop mutants in pRNA122, standard deviation 89) was determined as 320 µg/mL; in assay [2] (DH5, read-out: MIC of chloramphenicol, median and mode over mutants, cells expressing 78 functional 790-loop mutants in pRNA122), 350 µg/mL; in assay [2] (DH5, read-out: MIC of chloramphenicol, remaining 76 selected MBS-RBS clones (14.2%), in the presence of inducer), 600 µg/mL. This compound also came in with a Chloramphenicol resistance in assay [1] (uninduced cells containing pRNA100) of 75 µg/mL. For the same compound, the “chloramphenicol concentration to which cells are sensitive” value in assay [2] (pRNA122 + wt MBS: CAT message translated by wild-type ribosomes) was under 10 µg/mL. The “MIC of chloramphenicol, range over mutants” value in assay [2] ({}) fell in the range of 150 to 550 µg/mL.

As a reminder, the MIC is the lowest concentration found to suppress growth.
